For orientation: IC50 means the concentration that inhibits the measured activity by half. A lower IC50 goes with inhibition by little substance. Usually AUC(0-t) stands for exposure summed from dosing to a finite time, without extrapolation to infinity. A high value points to high exposure. What is called Cmax is the maximum level reached in the sampled fluid or tissue.

These results are taken from patent US20250304578A1, “NITROGEN-CONTAINING FUSED HETEROCYCLIC COMPOUNDS OF N-SULFONAMIDE AND USE THEREOF” (NUTSHELL THERAPEUTICS (SHANGHAI) CO., LTD., priority 2023, published 2025).

Where two headings read alike, the source gives them in different places.

Series [1] concerns the target CYP2C9 (Homo sapiens (Human), UniProt P11712). The series is described as follows: Inhibitory activity on CYP isoenzymes at a single concentration. The class given is in vitro ADME. The note with it: pH 7.4, probe diclofenac; final compound concentration 10 μM; human liver microsomes; substrate diclofenac; read-out: Inhibition rate (%) CYP2C9. The text has this:
(§1) The buffer was filtered through a 0.45 μm filter.
For orientation: Liver microsomes are a subcellular fraction often used to study metabolism.

Series [2] concerns the target CYP2D6 (Homo sapiens (Human), UniProt P10635). The series is described as above. The class given is in vitro ADME. The following applies: pH 7.4, probe dextromethorphan; final compound concentration 10 μM; human liver microsomes; substrate dextromethorphan; read-out: Inhibition rate (%) CYP2D6.
Excerpt: as §1

The subject of series [3] is CYP3A4/5. The description is as above. The class given is in vitro ADME. The following applies: final compound concentration 10 μM, human liver microsomes.
Excerpt: as §1

Series [4] is described as follows: Metabolic stability in liver microsomes. Format: in vitro ADME. The note with it: for microsomal CLint at 1 μM: read-out: In vitro Clint (μL/min/mg protein); for half-life at 1 μM: read-out: In vitro t1/2. The protocol:
The test compound and the positive control compound (dextromethorphan as a control compound) were dissolved respectively in DMSO to prepare a stock solution with a concentration of 10 mM, and the above stock solution was diluted into 200 μM working solution with DMSO. 8.709 g of potassium hydrogen phosphate (K2HPO4) was dissolved in 950 mL of water, and the pH value of the solution was adjusted to 7.4 with hydrochloric acid, and then the volume was adjusted to 1000 mL with water. After filtration using a 0.22 μm filter membrane, the mixture was stored in a 4° C. refrigerator for later use. After liver microsomes of various species (protein concentration of 20 mg/mL) were thawed in a 37° C. water bath, the liver microsomes were diluted with a phosphate buffer respectively to obtain a liver microsome working solution with protein concentration of 0.629 mg/mL. 5 mM NADPH solution was prepared using the above phosphate buffer for later use. 1 mg/mL stock solution of terfenadine/tolbutamide was prepared with DMSO and then diluted with a 50% methanol/50% acetonitrile mixed solution to a reaction stop solution containing 5/10 ng/mL (terfenadine/tolbutamide) internal standard.
238.5 μL of liver microsome working solutions of various species were added to a 1.1 mL microtube, and 1.5 μL of the test compound working solution or the positive control compound (dextromethorphan) working solution (200 μM) was added respectively, mixed well, and pre-incubated in a 37° C. water bath for 5 minutes. 60 μL of NADPH solution was added to start the reaction, and after mixing well, at the time points of 0, 5, 15, 30, and 60 minutes after the reaction, 30 μL of the reaction mixture was respectively pipetted and added to 300 μL of the reaction stop solution. Samples from all time points were vortexed vigorously for 1 minute and centrifuged at 4000 rpm for 15 minutes at 4° C. 100 μL of the supernatant was added to 100 μL of pure water and mixed well for LC-MS/MS analysis.
The slope (ke) was determined by plotting the natural logarithm of the percentage of compound remaining against time, and the Tin and intrinsic clearance (CLint) were calculated based on the first-order kinetic formula: […]
The compound remaining rate is calculated as follows:
Intrinsic clearance CLint (μL/min/mg protein)=0.693*1000/T1/2/protein concentration (0.5 mg protein/mL)

Series [5] deals with voltage-gated potassium channel hERG (Homo sapiens (Human), UniProt Q12809). The series is described as follows: hERG potassium channel inhibitory activity test (manual patch clamp, HEK293). The class given is cell-based. The note with it: HEK293 cells stably expressing hERG. Background: The hERG channel carries a current that helps repolarise heart muscle cells.
Protocol: This experiment was conducted to detect the effect of compounds in five concentrations on hERG channel current, obtaining a dose-effect curve and calculating the IC50.
Cell line and cell culture: HEK293 cell line stably expressing the hERG ion channel (Cat. No.: K1236) was purchased from Invitrogen Company. […] When the cell density grows to 40% to 80% of the bottom area of the culture dish, the cells were digested with trypsin and passaged three times per week. Prior to the experiment, cells were cultured in a 3.5 cm culture dish at a density of 5×10^5, induced with 1 μg/mL doxycycline for 48 hours, and then the cells were digested and seeded on glass slides for subsequent manual patch clamp experiments. […]
Experimental procedure: A coverslip loaded with HEK293 cells in a culture dish was placed in the perfusion chamber of the microscope stage. […] The hERG current used to detect the test compound was continuously recorded for 120 seconds before administration to evaluate the stability of the hERG current generated by the test cells. […] Test of the inhibitory effect of the test compound on hERG current: First, the hERG current measured in the extracellular fluid containing 0.1% DMSO was used as the detection baseline. […] After each perfusion was completed, approximately 5 minutes were waited to allow the compounds to fully act on the cells, and hERG currents were synchronously recorded.
Series [6] has as its target CYP2C19 (Homo sapiens (Human), UniProt P33261). The series is described as follows: Inhibitory activity on CYP isoenzymes at a single concentration. The note with it: pH 7.4, probe mephenytoin; final compound concentration 10 μM; human liver microsomes; substrate mephenytoin; NI: no inhibition; read-out: Inhibition rate (%) CYP2C19. The class given is in vitro ADME.
Excerpt: as §1

Series [7] can be described thus: In vivo pharmacokinetic study in mice. The note with it: male, mouse, plasma, CD-1 mice. The procedure:
(§2) Intravenous injection: 40% HP-β-CD in water; intragastric administration: 0.2% HPC+0.5% Tween80 in water.
6 male mice. Fasting treatment was performed in the evening before the administration, with free access to water. During the experiment, the mice were allowed to eat and drink freely, and administered by intravenous injection or gavage. After administration, the animal status was observed, and abnormal behaviors were recorded. Blood was collected from the orbit at 0.0833, 0.25, 1, 2, 4, 8, and 24 hours after intravenous injection, and at 0.25, 0.5, 1, 2, 4, 6, 8, and 24 hours after intragastric administration. 20 μL of plasma sample was taken and added with 250 μL of acetonitrile (containing dexamethasone as an internal standard) to precipitate proteins. The mixture was centrifuged at 4° C. and 4000 rpm for 20 minutes, and 180 μL of the supernatant was taken and mixed with 180 μL of an aqueous solution containing 0.1% formic acid in a 96-well plate. Then, 10 μL of the sample was taken for LC-MS/MS detection.
(§3) The standard curve was established using the internal standard method, with the theoretical standard curve concentration as the X-axis and the peak area ratio as the Y-axis (peak area of the test compound/peak area of internal standard). Linear regression method (weighting factor 1/X2) was used, R^2>0.9900. Unknown samples were calculated by the standard curve. Pharmacokinetic parameters were calculated by the non-compartmental analysis model of WinNonlin 8.2 software and were presented in a report, including Clint, Cmax, AUC, etc.

Series [8] in a line: In vivo pharmacokinetic study in rats. The following applies: male, rat, plasma, SD rats. The procedure: as §2
6 male rats. Fasting treatment was performed in the evening before the administration, with free access to water. During the experiment, the rats were allowed to eat and drink freely, and administered by intravenous injection or gavage. After administration, the animal status was observed, and abnormal behaviors were recorded. Blood was collected via jugular vein puncture at 0.0833, 0.25, 1, 2, 4, 8, and 24 hours after intravenous injection; Blood was collected via jugular vein puncture at 0.25, 0.5, 1, 2, 4, 6, 8, and 24 hours after intragastric administration. 50 μL of plasma sample was taken and added with 500 μL of acetonitrile (containing dexamethasone as an internal standard) to precipitate proteins. The mixture was centrifuged at 4° C. and 4000 rpm for 20 minutes, and 300 μL of the supernatant was taken and mixed with 300 μL of Watsons aqueous solution in a 96-well plate. Then, 5 μL of the sample was taken for LC-MS/MS detection.
as §3

Setting [9] is: pH 7.4, probe midazolam, substrate midazolam, read-out: Inhibition rate (%) CYP3A4/5 (Midazolam).
[10] abbreviates: ICR/CD-1, pH 7.4, Mouse liver microsomes.
[11] abbreviates: Sprague Dawley, pH 7.4, Rat liver microsomes.

Chain of CYP2D6 (P10635 whole entry): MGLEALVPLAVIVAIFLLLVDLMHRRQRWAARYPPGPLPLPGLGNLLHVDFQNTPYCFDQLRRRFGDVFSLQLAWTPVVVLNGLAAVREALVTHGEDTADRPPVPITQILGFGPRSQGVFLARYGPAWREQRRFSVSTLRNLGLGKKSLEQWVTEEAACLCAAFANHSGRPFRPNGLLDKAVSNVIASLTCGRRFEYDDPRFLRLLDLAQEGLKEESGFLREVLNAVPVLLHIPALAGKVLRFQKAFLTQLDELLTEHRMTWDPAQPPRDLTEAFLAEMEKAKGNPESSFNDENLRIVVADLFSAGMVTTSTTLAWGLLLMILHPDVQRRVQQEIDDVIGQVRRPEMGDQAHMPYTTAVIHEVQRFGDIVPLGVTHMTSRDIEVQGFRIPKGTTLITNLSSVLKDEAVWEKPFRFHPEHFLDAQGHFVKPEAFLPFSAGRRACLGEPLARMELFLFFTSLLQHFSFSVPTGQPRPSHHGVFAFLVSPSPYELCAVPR
Chain of CYP2C9 (P11712 whole entry): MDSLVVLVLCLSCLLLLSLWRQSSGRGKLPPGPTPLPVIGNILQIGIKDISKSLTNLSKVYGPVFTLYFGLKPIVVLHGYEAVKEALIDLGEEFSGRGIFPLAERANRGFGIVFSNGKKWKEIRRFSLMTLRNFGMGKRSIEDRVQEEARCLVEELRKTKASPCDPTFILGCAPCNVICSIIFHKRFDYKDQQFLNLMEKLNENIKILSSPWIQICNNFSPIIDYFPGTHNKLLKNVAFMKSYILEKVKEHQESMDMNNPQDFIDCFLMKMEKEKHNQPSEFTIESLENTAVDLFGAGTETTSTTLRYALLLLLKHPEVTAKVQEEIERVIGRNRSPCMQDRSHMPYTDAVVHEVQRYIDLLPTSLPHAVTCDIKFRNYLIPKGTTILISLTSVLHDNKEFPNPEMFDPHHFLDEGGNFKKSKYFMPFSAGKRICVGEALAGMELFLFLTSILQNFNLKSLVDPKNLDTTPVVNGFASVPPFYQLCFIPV
Chain of voltage-gated potassium channel hERG (Q12809 whole entry): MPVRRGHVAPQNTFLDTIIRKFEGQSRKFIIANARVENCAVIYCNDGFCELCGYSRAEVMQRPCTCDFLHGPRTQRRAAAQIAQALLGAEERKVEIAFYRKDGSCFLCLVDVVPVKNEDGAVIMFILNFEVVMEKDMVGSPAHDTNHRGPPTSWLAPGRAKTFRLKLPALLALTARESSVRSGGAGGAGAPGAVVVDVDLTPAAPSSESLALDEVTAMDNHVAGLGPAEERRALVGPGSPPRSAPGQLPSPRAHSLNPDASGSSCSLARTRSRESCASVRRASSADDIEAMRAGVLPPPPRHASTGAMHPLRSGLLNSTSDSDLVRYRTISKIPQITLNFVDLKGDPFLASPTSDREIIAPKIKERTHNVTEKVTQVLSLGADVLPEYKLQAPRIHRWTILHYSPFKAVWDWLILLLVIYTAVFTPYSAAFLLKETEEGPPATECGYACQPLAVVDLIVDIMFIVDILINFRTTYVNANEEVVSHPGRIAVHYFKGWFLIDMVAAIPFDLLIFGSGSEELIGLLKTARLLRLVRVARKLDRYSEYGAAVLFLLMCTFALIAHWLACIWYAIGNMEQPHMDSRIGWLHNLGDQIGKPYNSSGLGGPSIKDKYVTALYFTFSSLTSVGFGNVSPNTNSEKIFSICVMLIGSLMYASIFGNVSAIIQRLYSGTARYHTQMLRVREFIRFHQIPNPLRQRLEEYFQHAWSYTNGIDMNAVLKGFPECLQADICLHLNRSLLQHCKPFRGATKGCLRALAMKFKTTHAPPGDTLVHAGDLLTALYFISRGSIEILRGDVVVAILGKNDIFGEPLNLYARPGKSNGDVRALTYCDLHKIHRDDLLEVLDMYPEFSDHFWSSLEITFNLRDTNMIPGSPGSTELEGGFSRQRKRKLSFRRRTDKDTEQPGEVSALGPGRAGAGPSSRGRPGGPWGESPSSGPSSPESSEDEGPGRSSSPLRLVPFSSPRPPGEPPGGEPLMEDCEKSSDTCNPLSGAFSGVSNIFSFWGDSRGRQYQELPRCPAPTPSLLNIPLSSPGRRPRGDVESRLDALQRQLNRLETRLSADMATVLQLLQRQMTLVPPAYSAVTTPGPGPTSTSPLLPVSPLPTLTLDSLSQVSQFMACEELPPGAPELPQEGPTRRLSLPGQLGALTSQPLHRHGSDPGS
Chain of CYP2C19 (P33261 whole entry): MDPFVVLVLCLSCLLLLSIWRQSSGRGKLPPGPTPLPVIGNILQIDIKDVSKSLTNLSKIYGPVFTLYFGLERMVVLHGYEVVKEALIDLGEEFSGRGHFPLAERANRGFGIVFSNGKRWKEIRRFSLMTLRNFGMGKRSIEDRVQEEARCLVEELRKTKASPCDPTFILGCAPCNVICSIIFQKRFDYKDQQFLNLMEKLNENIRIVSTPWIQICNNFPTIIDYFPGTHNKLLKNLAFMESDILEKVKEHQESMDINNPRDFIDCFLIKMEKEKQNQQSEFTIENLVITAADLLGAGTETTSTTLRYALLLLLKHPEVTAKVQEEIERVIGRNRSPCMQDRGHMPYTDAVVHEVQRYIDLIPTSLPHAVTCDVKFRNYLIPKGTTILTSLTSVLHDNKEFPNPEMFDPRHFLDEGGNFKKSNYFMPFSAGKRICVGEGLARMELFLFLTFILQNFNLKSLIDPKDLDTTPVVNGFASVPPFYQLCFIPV

`COc1nc(C(=O)NS(C)(=O)=O)ccc1NCC#Cc1cc2c(N[C@@H]3CCN(C)C[C@@H]3F)cccn2c1CC(F)(F)F` [Cpd-1, 5-((3-(8-(((3S,4R)-3-Fluoro-1-methylpiperidin-4-yl)amino)-3-(2,2,2-trifluoroethyl)indolizin-2-yl)prop-2-yn-1-yl)amino)-6-methoxy-N-(methylsulfonyl)picolinamide]: the inhibition at 10 min, 10 µM worked out at 6.7% in series [1]; 1.6% in series [2]; 9.8% in series [3] (setting [9]); 3.7% in series [3] (pH 7.4, probe testosterone, substrate testosterone, NI: no inhibition, read-out: Inhibition rate (%) CYP3A4/5 (Testosterone)). Further, the microsomal CLint at 1 μM in series [4] (setting [10]) is 13.7 µL/min/mg; in series [4] (setting [11]) it was 35 µL/min/mg; in series [4] (pH 7.4, Human liver microsomes), 7.3 µL/min/mg. Moreover, the half-life at 1 μM in series [4] (setting [10]) turned out to be 1.2 h; in series [4] (setting [11]), 0.467 h; in series [4] (pH 7.4, Human liver microsomes) it was 2.27 h. Further, the IC50 in series [5] is over 30 µM.
As to `[2H]C([2H])([2H])Oc1nc(C(=O)NS(C)(=O)=O)ccc1NCC#Cc1cc2c(N[C@@H]3CCN(C)C[C@@H]3F)cccn2c1CC(F)(F)F` [Cpd-2, 5-((3-(8-(((3S,4R)-3-Fluoro-1-methylpiperidin-4-yl)amino)-3-(2,2,2-trifluoroethyl)indolizin-2-yl)prop-2-yn-1-yl)amino)-6-(methoxy-d3)-N-(methylsulfonyl)picolinamide], the inhibition at 10 min, 10 µM in series [6] was found to be 8.4%; in series [1], 8.9%; in series [2] it was 7.2%; in series [3] (setting [9]), 8.7%. The microsomal CLint at 1 μM in series [4] (setting [10]) is 12.6 µL/min/mg; in series [4] (setting [11]), 11.7 µL/min/mg; in series [4] (pH 7.4, Human liver microsomes), under 5.4 µL/min/mg. Besides, the half-life at 1 μM in series [4] (setting [10]) is 1.83 h; in series [4] (setting [11]) it was 1.98 h; in series [4] (pH 7.4, Human liver microsomes), over 4.27 h. Moreover, the IC50 in series [5] is over 30 µM. Also, the AUC(0-t) in series [7] (IV 1 mg/kg) turned out to be 1.7 µM·h; in series [7] (PO 10 mg/kg), 15.7 µM·h; in series [8] (IV 1 mg/kg) it was 8.4 µM·h; in series [8] (PO 10 mg/kg) it was 58.4 µM·h. The Cmax amounted to 5.9 µM in series [7] (PO 10 mg/kg) and 8.9 µM in series [8] (PO 10 mg/kg).
